Measured values published in patent publication US4301177A, “(3-Methyl-2-butenyl)propanedioic acid mono (1,2-diphenylhydrazide) and salts thereof” (Istituto de Angeli S.p.A., priority 1979, dated 1981).
Structures can show the parent of a compound that is named as a salt.

Legend:
rats [1] = assay: Effect on arthritis induced in rats by Freund's adjuvant (Table II); format: in vivo, male Sprague-Dawley rats; conditions: day 20
mice = assay: Analgesic activity, hot plate test in mice (Table III); format: in vivo, male Swiss mice
Description: (§1) In the present study the test compounds were administered perorally by means of a stomach tube as an aqueous suspension in 5% acacia gum at a constant volume of 10 ml/kg to male Swiss mice and male Sprague-Dawley rats. Control rats and mice were given a corresponding volume of the aqueous suspension medium. The results were statistically evaluated by Dunnett's test (C. V. Dunnett.: J.A. Stat. Ass., 40, 1096, 1955).
The analgesic activity was evaluated in mice by the hot plate test according to Janssen and Jageneau (J.Pharm.Pharmac., 9, 381, 1957).
The plate temperature was kept constant at 55° C.; the reaction time was determined before and 30, 60, 90 and 120 minutes after oral administration of the test compound. Average values after administration of the test compound were compared to those obtained before treatment.

rats [2] = assay: Analgesic-anti-inflammatory activity, Randall and Selitto, brewer's yeast inflamed paw in rats (Table IV); format: in vivo, male Sprague-Dawley rats
Description: as §1
4. Analgesic-anti-inflammatory activity
The analgesic-anti-inflammatory activity was evaluated in rats by the method of Randall and Selitto (Arch. Int. Pharmacodyn., 111, 409, 1957), using an analgesimeter to measure the minimum load that must be applied to a rat's hind paw to elicit a painful stimulus.
Both the controls and the experimental rats were injected into the right hind paw with 0.1 ml of 20% brewer's yeast in sterile saline immediately before the administration of the test compound.
The volume of the inflamed right hind paw was measured 1, 2 and 4 hours after the administration of the test compound.
The analgesic-anti-inflammatory activity was evaluated using an "analgesic index" expressed as a ratio between the sum of the average weights (grams) necessary to provoke a painful stimulus at different times in treated and control animals.

rats [3] = assay: Antipyretic activity, fever induced by brewer's yeast in rats (Table V); format: in vivo, male Sprague-Dawley rats
Description: as §1
The antipyretic activity was investigated in rats by the method of Niemegeers et al. (see Arzneim.Forsch. 25, 1519, 1975). The rectal temperature was measured immediately before and 4 hours after the subcutaneous injection of 1 ml/100 g body weight of a 15% brewer's yeast suspension in 1% acacia gum.
The test compound was administered orally to groups of 5 different rats per dose 4 hours after the yeast injection. The rectal temperature was measured 0.5, 1, 1.5, 2, 2.5, 3 and 19 hours after treatment.
(§2) Average values of the temperatures obtained in the treated rats were compared with those of control rats.

rats [4] = assay: Effect on normal temperature of rats (Table VI); format: in vivo, male Sprague-Dawley rats
Description: as §1
6. Effect on normal temperature of rats
The rectal temperature was measured at 30-minute intervals before and after administration of the test compound, that is, at -1.5, -1, -0.5, 0.5, 1, 1.5 and 2 hours, using groups of 10 rats each for each dosage level.
as §2

rats [5] = assay: Ulcerogenic effect, gastric lesions in rats (Table VIII); format: in vivo, male Sprague-Dawley rats; conditions: single dose; for % animals with gastric lesions: 16 h
Description: as §1
The ulcerogenic effect was determined in rats by the method of Niemegeers et al. (Arzneimittel-Forschung 25, 1537, 1975). A single oral dose was administered to groups of 15 rats fasted for 9 hours before treatment and kept fasting throughout the whole experimental period. The animals were sacrificed 16 hours after treatment; the severity of lesions was scored according to an arbitrary scale ranging from + to ++++. For each group of rats, an ulcerogenic index was calculated according to Pauls et al., (Gastroenterology 8, 774, 1947).

## CCCCC(C(=O)O)C(=O)N(Nc1ccccc1)c1ccccc1 (centres unmarked) [B, Calcium salt of butylpropanedioic acid mono(1,2-diphenylhydrazide), reference compound]
Rats [1]; 40 mg/kg oral
  % Inhibition: 30%
Rats [1]; 80 mg/kg oral
  % Inhibition: 32%
Rats [1]; 160 mg/kg oral
  % Inhibition: 41.6%
mice; 50 mg/kg oral, 0 (before administration)
  Reaction time: 14.00 ± 3.80 s
mice; 50 mg/kg oral, 30 min
  Reaction time: 16.50 ± 3.60 s
mice; 100 mg/kg oral, 0 (before administration)
  Reaction time: 14.30 ± 2.67 s
mice; 100 mg/kg oral, 90 min
  Reaction time: 17.10 ± 4.48 s
mice; 100 mg/kg oral, 120 min
  Reaction time: 16.10 ± 2.56 s
mice; 200 mg/kg oral, 0 (before administration)
  Reaction time: 12.90 ± 2.92 s
Rats [2]; 40 mg/kg oral, 1 h
  Mean of the weights eliciting painful stimulus: 145.0 grams
Rats [2]; 40 mg/kg oral, 2 h
  Mean of the weights eliciting painful stimulus: 108.8 grams
Rats [2]; 40 mg/kg oral, 4 h
  Mean of the weights eliciting painful stimulus: 105.0 grams
Rats [2]; 80 mg/kg oral, 1 h
  Mean of the weights eliciting painful stimulus: 140 grams
Rats [2]; 80 mg/kg oral, 2 h
  Mean of the weights eliciting painful stimulus: 128.8 grams
Rats [2]; 80 mg/kg oral, 4 h
  Mean of the weights eliciting painful stimulus: 110.0 grams
Rats [2]; 160 mg/kg oral, 1 h
  Mean of the weights eliciting painful stimulus: 142.8 grams
Rats [2]; 160 mg/kg oral, 2 h
  Mean of the weights eliciting painful stimulus: 161.2 grams
Rats [2]; 160 mg/kg oral, 4 h
  Mean of the weights eliciting painful stimulus: 140.0 grams
Rats [3]; 40 mg/kg oral, 0 h (4 h after yeast, before treatment)
  Rectal temperature: 38.08 °C
Rats [3]; 40 mg/kg oral, 0.5 h
  Rectal temperature: 38.05 °C
Rats [3]; 40 mg/kg oral, 1 h
  Rectal temperature: 38.20 °C
Rats [3]; 40 mg/kg oral, 1.5 h
  Rectal temperature: 38.09 °C
Rats [3]; 40 mg/kg oral, 2 h
  Rectal temperature: 38.17 °C
Rats [3]; 40 mg/kg oral, 2.5 h
  Rectal temperature: 38.45 °C
Rats [3]; 40 mg/kg oral, 3 h
  Rectal temperature: 38.01 °C
Rats [3]; 40 mg/kg oral, 19 h
  Rectal temperature: 37.28 °C
Rats [3]; 40 mg/kg oral, -4 h (before yeast)
  Rectal temperature: 36.74 °C
Rats [3]; 80 mg/kg oral, 0 h (4 h after yeast, before treatment)
  Rectal temperature: 38.02 °C
Rats [3]; 80 mg/kg oral, 0.5 h
  Rectal temperature: 37.10 °C
Rats [3]; 80 mg/kg oral, 1 h
  Rectal temperature: 37.38 °C
Rats [3]; 80 mg/kg oral, 1.5 h
  Rectal temperature: 37.48 °C
Rats [3]; 80 mg/kg oral, 2 h
  Rectal temperature: 37.65 °C
Rats [3]; 80 mg/kg oral, 2.5 h
  Rectal temperature: 37.96 °C
Rats [3]; 80 mg/kg oral, 3 h
  Rectal temperature: 37.80 °C
Rats [3]; 80 mg/kg oral, 19 h
  Rectal temperature: 37.44 °C
Rats [3]; 80 mg/kg oral, -4 h (before yeast)
  Rectal temperature: 36.96 °C
Rats [3]; 160 mg/kg oral, 0 h (4 h after yeast, before treatment)
  Rectal temperature: 38.52 °C
Rats [3]; 160 mg/kg oral, 0.5 h
  Rectal temperature: 37.89 °C
Rats [3]; 160 mg/kg oral, 1 h
  Rectal temperature: 37.81 °C
Rats [3]; 160 mg/kg oral, 1.5 h
  Rectal temperature: 37.90 °C
Rats [3]; 160 mg/kg oral, 2 h
  Rectal temperature: 37.34 °C
Rats [3]; 160 mg/kg oral, 2.5 h
  Rectal temperature: 37.50 °C
Rats [3]; 160 mg/kg oral, 3 h
  Rectal temperature: 37.41 °C
Rats [3]; 160 mg/kg oral, 19 h
  Rectal temperature: 36.75 °C
Rats [3]; 160 mg/kg oral, -4 h (before yeast)
  Rectal temperature: 36.06 °C
Rats [4]; 40 mg/kg oral, 0.5 h
  Rectal temperature (normal rats): 36.02 °C
Rats [4]; 40 mg/kg oral, 1 h
  Rectal temperature (normal rats): 36.13 °C
Rats [4]; 40 mg/kg oral, 1.5 h
  Rectal temperature (normal rats): 36.10 °C
Rats [4]; 40 mg/kg oral, 2 h
  Rectal temperature (normal rats): 36.20 °C
Rats [4]; 40 mg/kg oral, -0.5 h (before administration)
  Rectal temperature (normal rats): 36.33 °C
Rats [4]; 40 mg/kg oral, -1 h (before administration)
  Rectal temperature (normal rats): 36.62 °C
Rats [4]; 40 mg/kg oral, -1.5 h (before administration)
  Rectal temperature (normal rats): 37.15 °C
Rats [4]; 80 mg/kg oral, 0.5 h
  Rectal temperature (normal rats): 36.14 °C
Rats [4]; 80 mg/kg oral, 1 h
  Rectal temperature (normal rats): 36.27 °C
Rats [4]; 80 mg/kg oral, 1.5 h
  Rectal temperature (normal rats): 36.31 °C
Rats [4]; 80 mg/kg oral, 2 h
  Rectal temperature (normal rats): 36.47 °C
Rats [4]; 80 mg/kg oral, -0.5 h (before administration)
  Rectal temperature (normal rats): 36.34 °C
Rats [4]; 80 mg/kg oral, -1 h (before administration)
  Rectal temperature (normal rats): 36.51 °C
Rats [4]; 80 mg/kg oral, -1.5 h (before administration)
  Rectal temperature (normal rats): 36.69 °C
Rats [4]; 160 mg/kg oral, 0.5 h
  Rectal temperature (normal rats): 35.62 °C
Rats [4]; 160 mg/kg oral, 1 h
  Rectal temperature (normal rats): 35.70 °C
Rats [4]; 160 mg/kg oral, 1.5 h
  Rectal temperature (normal rats): 35.92 °C
Rats [4]; 160 mg/kg oral, 2 h
  Rectal temperature (normal rats): 36.24 °C
Rats [4]; 160 mg/kg oral, -0.5 h (before administration)
  Rectal temperature (normal rats): 36.00 °C
Rats [4]; 160 mg/kg oral, -1 h (before administration)
  Rectal temperature (normal rats): 36.52 °C
Rats [4]; 160 mg/kg oral, -1.5 h (before administration)
  Rectal temperature (normal rats): 36.50 °C
Rats [5]; 40 mg/kg oral
  Body weight, mean ± standard deviation: 194.67 ± 7.43 grams
  % animals with gastric lesions: 0%
Rats [5]; 80 mg/kg oral
  Body weight, mean ± standard deviation: 190.67 ± 8.84 grams
  % animals with gastric lesions: 0%
Rats [5]; 160 mg/kg oral
  Body weight, mean ± standard deviation: 198.00 ± 11.46 grams
  % animals with gastric lesions: 6.66%
Rats [5]; 320 mg/kg oral
  Body weight, mean ± standard deviation: 186.67 ± 7.24 grams
  % animals with gastric lesions: 64.28%
